# In patent publication US20230257715A1, “COMPOSITIONS AND METHODS FOR REGULATING ENTEROENDOCRINE CELL DIFFERENTIATION AND USES THEREOF” (The Children's Medical Center Corporation, priority 2020, published 2023):
# Several values for one entry are separate records, joined by “and”; a condition that tells them apart may be missing. Equal values may be shown once. Entries after “also recorded” stand apart in the source; their conditions may differ.
# Assays:
# Assay type in all cases: cell-based
# [1] = tested on: human duodenal enteroids; experiment: qPCR analysis of enteroendocrine and lineage markers in enteroids; settings: time-course of AS-treated enteroids, RNA every two days
# [2] = tested on: human duodenal enteroids; experiment: as above
# From the text: For differentiation, enteroids were passaged and grown in GM for two days, to allow for ISC expansion, after which the organoids were transitioned to tissue-specific differentiation media (DM) with additional small molecules added as described (TABLE 1A and TABLE 1B). Media was changed every two days, with Tubastatin A being removed after the second day of differentiation. Enteroids and rectoids were taken for analysis after 14 days.
# Total RNA was purified from individual wells using TRI®Reagent (Sigma) and the Direct-zol™ RNA kit (Zymo Research), following the manufacturer's protocol. RNA concentration was determined using a NanoDrop™ 1000 spectrophotometer (Life Technologies). RNA was treated with DNAse (Promega) and reverse transcribed using the High-Capacity cDNA Reverse Transcription Kit (Life Technologies). Gene expression analysis was then performed by Real Time quantitative PCR (qPCR) using a QuantStudio 6 Flex thermocycler (Life Technologies). Taqman primers from Life Technologies (TABLE 3) were used. 18S transcripts were used as the internal control and data were expressed using the 2^−ddCt method with Ct limit of 40. Fold change, unless otherwise stated, was compared to total RNA derived from adult whole mucosal tissue biopsies.
# [3] = tested on: human duodenal enteroids; experiment: Immunofluorescence staining of CHGA, percentage of CHGA-positive enteroids
# Experimental: Immunofluorescence staining was performed as previously described with minor modifications (Dekkers J F, Alieva M, Wellens L M, et al. Nat Protoc 2019; 14:1l756-1771)^32. Organoids were grown in and isolated from Matrigel® as noted above. 1-3 wells from a 24-well plate were washed in 200 μL of 1× phosphate-buffered saline (PBS) and moved in suspension to a 1.5 mL microcentrifuge tube. Each tube was centrifuged at 800×g for 5 minutes at 4° C. to pellet organoids. PBS was aspirated, and organoids were fixed in 200 μL of 4% paraformaldehyde (PFA) for 20 minutes on ice, shaking. Each tube was centrifuged again as above, and PFA was aspirated. The organoids were then resuspended in 500 μL of 0.3% Triton-X in PBS and moved to a 48-well plate for the remaining steps. The organoids were permeabilized for 30 minutes at room temperature, shaking. Between each step, organoids were allowed to settle to the bottom of each well, the plate was angled, and the solution aspirated by careful pipetting. Organoids were then blocked with 5% bovine serum albumin in PBS for 1.5 hours at room temperature, shaking. This was followed by three five-minute washes in 500 μL of PBS at room temperature, shaking. […]
# This technique was adapted from a previously described method (Borten M A, Bajikar S S, Sasaki N, et al. Sci Rep 2018; 8:5319)^69. […] Any remaining clumped enteroids were manually separated prior to quantification. […]
structure (smiles),measurement,setting,value
"CCn1cc(C(=O)O)c(=O)c2c(N)c(F)c(NC3CCCCC3)cc21 [AS, AS1842856]",CHGA and SST transcript levels over time,[1],detectable transcript levels by the sixth day of differentiation
same,NEUROD1 and NEUROG3 expression over time,[1],showed increased expression around the fourth day of differentiation
same,expression of the enterocyte marker ALP1 (qPCR),[2]; compared to G14 and G2D12,reduced expression
same,other intestinal lineage marker mRNA expression (qPCR),[2]; compared to G14 and G2D12,"increased expression of other secretory and ISC markers, including ATOH1, MUC2, LYZ, and LGR5"
same,EE marker mRNA expression (qPCR),"[2]; compared to G14 and G2D12, referenced to whole mucosa, normalized to 18S","induced similar mRNA expression trends as Rim and SP (RSP); also recorded: upregulation of multiple EE markers (CHGA, PAX4, PDX1, NEUROD1, NEUROG3, SST and GIP), many to levels approximating whole mucosa"
same,"EE marker mRNA expression, direct comparison of protocols (qPCR)","[2]; compared to RSP / AS alone, FIG. 5.1A and 5A","higher expression of CHGA, NEUROD1, NEUROG3, and SST"
same,"MUC2, ALP1 and LGR5 mRNA expression compared to those that received RSP alone","[2]; qPCR, FIG. 7.1A",decreased expression of MUC2 and ALP1 and increased expression of LGR5
same,"CHGA expression by immunofluorescence staining (whole well, qualitative)",[3]; FIG. 5B legend,more
same,percentage of enteroids containing CHGA+ cells (immunofluorescence),"[3]; enteroids, 14-day protocol",85% and 82%
